Source: US10294234B2, “HIV inhibitor compounds” (priority 2017, dated 2019)
Like-named read-outs stand apart in the source and are kept apart here.

Tests used:
in vivo [1] = experiment: in vivo
Method: Pharmacokinetic Profiling Dog PK
Each dosing group consisted of three non-naïve male beagle dogs. At dosing, the animals weighed between 9 to 12 kg. The animals were fasted overnight prior to dose administration and up to four hours after dosing. The test article was administered by intravenous infusion over 30-minutes. The rate of infusion was adjusted according to the body weight of each animal to deliver a dose of 0.5 or 1.0 mg/kg. For the oral dosing group, the test article was administered by oral gavage at a dose volume of 2 mL/kg.
Serial venous blood samples (approximately 1.0 mL each) were collected at predose and 0.25, 0.48, 0.58, 0.75, 1.0, 1.5, 2, 4, 8, 12 and 24 hours post dose from each animal for the IV dosing group; blood samples were collected at predose, 0.25, 0.50, 1, 2 4, 6, 8,12 and 24 hours post dose for the oral dosing group. The blood samples were collected into Vacutainer™ tubes containing EDTA-K2 as the anti-coagulant and were immediately placed on wet ice pending centrifugation for plasma. An LC/MS/MS method was used to measure the concentration of test compound in plasma. Non-compartmental pharmacokinetic analysis was performed on the plasma concentration-time data. VSS=apparent volume of distribution, t1/2=half life, F=oral bioavailability.

[2] = Procedure, shortened: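 LC/MS/MS read-out of parent compound remaining; in vitro t1/2 converted to Clint. Incubation: 1 uM compound, 0.5 mg/mL dog/rat/human liver microsomes, NADPH-regenerating system, duplicate sets, time-points 2–65 minutes.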
[3] = 3H Human Predicted Clearance Assay (tritiated analogs); assay type: in vitro ADME; settings: human, 1 uM
Method: 3H Human Predicted Clearance Assay:
For certain compounds, tritiated analogs (H^3) were prepared to further determined their human predicted clearance with increased resolution. Those studies were performed as described above using the tritiated analogs. Data from those compounds is found in Table 2 below and reported in FIG. 1 (note ATV and DRV were not tritiated).

[4] = test system: HIV-1 (IIIB) in MT-4 cells; experiment: MT-4 HIV assay; assay type: cell-based; settings: Human immunodeficiency virus 1, MT4, 120 h; HIV-1 (IIIB), MT-4 cells, 5 days, Cell Titer Glo; read-out: EC50
Procedure, shortened: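 Antiviral activity was read by Cell Titer Glo after a 5-day, 37 °C culture of MT-4 cells pre-infected with a 1:250 dilution of HIV-1 (IIIB). Compounds were tested as threefold dilution series in complete RPMI. Controls were no drug, mock infection and 5 uM AZT.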

in vivo [5] = settings: for Vd / RAT IV CL / RAT IV T1/2: iv
Procedure, shortened: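 Male SD rats (n=3/group, 0.27–0.32 kg), fasted overnight, given 0.5 or 1.0 mg/kg by 30-min IV infusion, or by oral gavage. Serial plasma samples (EDTA-K2) over 24 h measured by LC/MS/MS; non-compartmental PK analysis.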

[6] = test system: HIV-1 (IIIB) in MT-4 cells; experiment: MT-4 HIV High Resolution Antiviral Assay; assay type: cell-based; settings: for EC50: Human immunodeficiency virus 1, IIIB, MT4; for EC95: calculated from Hill coefficient and EC50; for Hill-coefficient: Graph Pad Prism
Method: Compounds were tested in a high-throughput 384-well assay format for their ability to inhibit the replication of HIV-1 (IIIB) in MT-4 cells. Compounds were serially diluted (1:3) in DMSO on 384-well polypropylene plates and further diluted 200-fold into complete RPMI media (10% FBS, 1% P/S) using the Biotek Micro Flow and Agilent ECHO acoustic dispenser. Each plate contained up to 8 test compounds, with negative (No Drug Control) and 5 uM AZT positive controls. MT-4 cells were pre-infected with 10 uL of either RPMI (mock-infected) or a fresh 1:250 dilution of an HIV-1 (IIIB) concentrated virus stock. Infected and uninfected MT-4 cells were further diluted in complete RPMI media and added to each plate using a Micro Flow dispenser. After 5 days incubation in a humidified and temperature controlled incubator (37° C.), Cell Titer Glo (Promega) was added to the assay plates to quantify the amount of luciferase. EC50 and CC50 values were defined as the compound concentration that causes a 50% decrease in luminescence signal, and were calculated using a sigmoidal dose-response model to generate curve fits.
(§1) MT-4 HIV High Resolution Antiviral Assay
(§2) Assay protocol is identical to that described for the MT-4 antiviral assay with the following changes: Each drug is run in 2 series of quadruplicates with different starting concentrations for each series and 19 1.5 fold dilutions performed across the plate. […] Data is analyzed and Hill coefficients determined in Graph Pad Prism (San Diego, Calif.). EC95s were determined by the formula EC95=(19)^I/hill coefficient×EC50. HD values were determined for certain compounds and reported in Table 5 below as an illustrative example.

recombinant HIV protease = recombinant HIV protease (Human immunodeficiency virus type 1 group M subtype B, UniProt P04585); experiment: biochemical
Method: Inhibitor potency was measured using an enzymatic assay with a fluorogenic readout. […] After a 20-minute pre-incubation, the enzymatic reaction was initiated by the addition of the fluorogenic substrate (2-aminobenzoyl)Thr-Ile-Nle-(p-nitro)Phe-Gln-Arg (Bachem) to a final concentration of 40 μM. The total volume of the assay solution was 100 µL. The reaction was measured over 20 minutes on a Tecan Infinite M1000 plate reader using an excitation wavelength of 320 nm and a detection wavelength of 420 nm. The slopes of the progress curves were the measure of reaction rates.

[7] = test system: HIV-1 (IIIB) in MT-4 cells; experiment: Protein adjusted EC95 (high resolution antiviral assay with equilibrium dialysis plasma protein binding); assay type: cell-based; settings: EC95 adjusted for plasma protein binding (10% plasma vs cell culture media)
Method: as §1, §2
Equilibrium Dialysis Assay
Pooled plasma (from at least 3 males and 3 females) was from Bioreclamation IVT. Sodium EDTA was used as the anticoagulant. 10% plasma was diluted in 0.133M phosphate buffer consisted of 1.5% (w/v) Sodium EDTA.
RPMI cell culture media consisted 10% FBS was provided by biology department, Gilead Sciences, Inc.
Plasma Protein Binding Assay:
Studies were conducted in duplicate or triplicate using a Dianorm Equilibrium Dialyser (Harvard Apparatus, Holliston Mass.) with each cell consisting of a semipermeable membrane (2.4 cm working diameter) separating two 1 mL PTFE half-cells (Weder HG, Schildknecht J, Kesselring P. A new equilibrium dialyzing system. American Laboratory. 1971; 10: 15-21). Prior to the study, the dialysis membrane was soaked for approximately one hour in 0.133 M phosphate buffer, pH 7.4. 10% plasma and cell culture media spiked with 1 μM compound (1 mL) were placed into opposite sides of the assembled dialysis cells and the dialysis cells were then rotated slowly in a 37° C. water bath. After the equilibration period, matrix-containing samples from both sides were drained into pre-weighed polypropylene tubes. Post-dialysis 10% plasma samples were transferred into centrifuge tubes containing 1 mL of blank cell culture media. Post-dialysis cell culture media samples were transferred into centrifuge tubes containing 1 mL of blank 10% plasma. All samples weights were measured and recorded for calculations of volume shift and recovery. […]

[8] = male beagle dogs, IV infusion over 30 minutes, 0.5 or 1.0 mg/kg
[9] = male, beagle, dog, in vivo, po, 2 mg/kg
[10] = male, SD, rat, in vivo, po, 2.5 mg/kg

COC(=O)N[C@H](C(=O)N[C@@H](Cc1ccc(C#Cc2ccc(N3CC4CCC(C3)N4C3COC3)nc2)cc1)[C@@H](O)CN(Cc1c(F)cc(-c2ccn(C3CC3)n2)cc1F)NC(=O)[C@@H](NC(=O)OC)C(C)(C)C(F)(F)F)C(C)(C)C(F)(F)F [Example 170, Methyl ((5S,8S,9S,14S)-11-(4-(1-cyclopropyl-1H-pyrazol-3-yl)-2,6-difluorobenzyl)-16,16,16-trifluoro-9-hydroxy-15,15-dimethyl-8-(4-((6-(8-(oxetan-3-yl)-3,8-diazabicyclo [3.2.1]octan-3-yl)pyridin-3-yl)ethynyl)benzyl)-3,6,13-trioxo-5-(1,1,1-trifluoro-2-methylpropan-2-yl)-2-oxa-4,7,11,12-tetraazahexadecan-14-yl)carbamate]
DOG IV CL (in vivo [1]; dog, in vivo, iv): 23.2 mL/min/kg
DOG IV T1/2 (in vivo [1]; [8]): 7.62 h
Vd (in vivo [1]; male, beagle, dog, in vivo, iv): 4.35 L/kg
DOG PO F (in vivo [1]; [9]): 2.45%
Human Pred Cl. ([2]; human, microsomes): <0.11 L/H/kg
Rat. Pred. Cl. ([2]; rat, microsomes): <0.18 L/H/kg
3H Human Predicted Cl. [3]: 0.05
EC50 [4]: 4.13 nM
Vd (in vivo [5]; male, SD, rat, in vivo): 3.32 L/kg
RAT PO F (in vivo [5]; [10]): 36.6%
RAT IV CL (in vivo [5]; rat, in vivo): 5.83 mL/min/kg
RAT IV T1/2 (in vivo [5]; rat, in vivo): 9.38 h

COC(=O)N[C@H](C(=O)N[C@@H](Cc1ccc(C#Cc2cnc(N3CC4CCC(C3)N4C3COC3)nc2)cc1)[C@@H](O)CN(Cc1c(F)cc(-c2ccn(C(F)F)n2)cc1F)NC(=O)[C@@H](NC(=O)OC)C(C)(C)C(F)(F)F)C(C)(C)C(F)(F)F [Example 171, Methyl ((5S,8S,9S,14S)-11-(4-(1-(difluoromethyl)-1H-pyrazol-3-yl)-2,6-difluorobenzyl)-16,16,16-trifluoro-9-hydroxy-15,15-dimethyl-8-(4-((2-(8-(oxetan-3-yl)-3,8-diazabicyclo[3.2.1]octan-3-yl)pyrimidin-5-yl)ethynyl)benzyl)-3,6,13-trioxo-5-(1,1,1-trifluoro-2-methylpropan-2-yl)-2-oxa-4,7,11,12-tetraazahexadecan-14-yl)carbamate]
DOG IV CL (in vivo [1]; dog, in vivo, iv): 4.33 mL/min/kg
DOG IV T1/2 (in vivo [1]; [8]): 13.4 h
Vd (in vivo [1]; male, beagle, dog, in vivo, iv): 3.12 L/kg
DOG PO F (in vivo [1]; [9]): 23%
Dog. Pred. Cl. ([2]; dog, microsomes): 0.27 L/H/kg
Human Pred Cl. ([2]; human, microsomes): <0.11 L/H/kg
Rat. Pred. Cl. ([2]; rat, microsomes): 0.215 L/H/kg
3H Human Predicted Cl. [3]: 0.02
EC50 [4]: 4.59 nM
Vd (in vivo [5]; male, SD, rat, in vivo): 8.11 L/kg
RAT PO F (in vivo [5]; [10]): 39%
RAT IV CL (in vivo [5]; rat, in vivo): 5.33 mL/min/kg
RAT IV T1/2 (in vivo [5]; rat, in vivo): 22.5 h

COC(=O)N[C@H](C(=O)N[C@@H](Cc1ccc(C#Cc2ccc(N3CC4CCC(C3)N4C3COC3)nc2)cc1)[C@@H](O)CN(Cc1c(F)cc(-c2cc(F)ccn2)cc1F)NC(=O)[C@@H](NC(=O)OC)C(C)(C)C(F)(F)F)C(C)(C)C(F)(F)F [Example 239, methyl ((5S,8S,9S,14S)-11-(2,6-difluoro-4-(4-fluoropyridin-2-yl)benzyl)-16,16,16-trifluoro-9-hydroxy-15,15-dimethyl-8-(4-((6-(8-(oxetan-3-yl)-3,8-diazabicyclo[3.2.1]octan-3-yl)pyridin-3-yl)ethynyl)benzyl)-3,6,13-trioxo-5-(1,1,1-trifluoro-2-methylpropan-2-yl)-2-oxa-4,7,11,12-tetraazahexadecan-14-yl)carbamate]
Human Pred Cl. ([2]; human, microsomes): <0.11 L/H/kg
Rat. Pred. Cl. ([2]; rat, microsomes): <0.18 L/H/kg
3H Human Predicted Cl. [3]: 0.13
EC50 [4]: 4.45 nM
Vd (in vivo [5]; male, SD, rat, in vivo): 5.49 L/kg
RAT PO F (in vivo [5]; [10]): 26.3%
RAT IV CL (in vivo [5]; rat, in vivo): 6.7 mL/min/kg
RAT IV T1/2 (in vivo [5]; rat, in vivo): 12.9 h

COC(=O)N[C@H](C(=O)N[C@@H](Cc1ccccc1)[C@@H](O)CN(Cc1ccc(-c2ccccn2)cc1)NC(=O)[C@@H](NC(=O)OC)C(C)(C)C)C(C)(C)C [atazanavir, methyl N-[(2S)-1-[2-[(2S,3S)-2-hydroxy-3-[[(2S)-2-(methoxycarbonylamino)-3,3-dimethylbutanoyl]amino]-4-phenylbutyl]-2-[(4-pyridin-2-ylphenyl)methyl]hydrazinyl]-3,3-dimethyl-1-oxobutan-2-yl]carbamate, reference compound]
EC50 ([6]; high resolution assay, 40 data points, MT-4 cells, read-out: EC50): 9.7 nM
EC95 [6]: 25 nM
Hill-coefficient ([6]; high resolution assay): 3.1
Ki (recombinant HIV protease): 0.035 nM
Protein Adjusted EC95 [7]: 75 nM
DOG IV CL (in vivo [1]; [8]): 16.7 mL/min/kg
DOG IV T1/2 (in vivo [1]; [8]): 1.3 h
DOG PO F (in vivo [1]; male beagle dogs, oral gavage, PO dose 10 mg/kg): 48%
Vd (in vivo [1]; male, beagle, dog, plasma, iv): 0.9 L/kg
Dog. Pred. Cl. ([2]; dog liver microsomes 0.5 mg/mL, 1 uM compound, NADPH): 1.4 L/H/kg
Human Pred Cl. ([2]; human liver microsomes 0.5 mg/mL, 1 uM compound, NADPH): 1.07 L/H/kg
Rat. Pred. Cl. ([2]; rat liver microsomes 0.5 mg/mL, 1 uM compound, NADPH): 3.7 L/H/kg
Vd (in vivo [5]; male, SD, rat, in vivo): 0.87 L/kg
RAT PO F (in vivo [5]; male, SD, rat, in vivo, po, 5 mg/kg): 38%
RAT IV CL (in vivo [5]; rat, in vivo): 45 mL/min/kg
RAT IV T1/2 (in vivo [5]; rat, in vivo): 0.37 h

CC(C)CN(C[C@@H](O)[C@H](Cc1ccccc1)NC(=O)O[C@H]1CO[C@H]2OCC[C@H]21)S(=O)(=O)c1ccc(N)cc1 [darunavir, [(3aS,4R,6aR)-2,3,3a,4,5,6a-hexahydrofuro[2,3-b]furan-4-yl] N-[(2S,3R)-4-[(4-aminophenyl)sulfonyl-(2-methylpropyl)amino]-3-hydroxy-1-phenylbutan-2-yl]carbamate, reference compound]
EC50 [6]: 7.2 nM
EC95 [6]: 19.9 nM
Hill-coefficient ([6]; high resolution assay): 2.9
Protein Adjusted EC95 [7]: 42 nM
DOG PO F (in vivo [1]; male beagle dogs, oral gavage, PO dose 2 mg/kg): 38%
Vd (in vivo [1]; male, beagle, dog, in vivo, iv): 0.87 L/kg
RAT PO F (in vivo [5]; male SD rats, oral gavage, PO dose 2.0 mg/kg): 24%
Vd (in vivo [5]; male, SD, rat, in vivo): 0.73 L/kg
